Biological target: T1, VEGFR2 (Homo sapiens, UniProt P35968)
T1 construct: coding for the cytoplasmic domain, beginning with lysine 791 and including the termination codon; made in house; host or cells: Sf9 insect cells (baculovirus, pFastBacHis)
Test: Inhibition against VEGFR2 kinase (receptor tyrosine kinase activity, HTRF method)
Format: biochemical
Details: His6-VEGFR2 cytoplasmic domain, biotin-poly(GT) substrate, ATP, 30° C. 10 minutes, read-out: IC50 (concentration required for 50% inhibition of VEGFR2 kinase activity)
Excerpt: Measurement of Inhibition Against Receptor Tyrosine Kinase Activity
This assay is used to determine inhibition of a test substance on tyrosine kinase activity. DNA coding for the cytoplasmic domain of VEGFR2 is obtained by total cDNA synthesis (Edwards M, International Biotechnology Lab 5(3), 19–25, 1987) or by cloning. Expression in an appropriate expression system can produce a polypeptide with tyrosine kinase activity. […] For VEGFR2 (Genbank Accession No. L04947), the 1.7 kb DNA fragment described by Terman et al. (Oncogene, 6(9), 1677–1683, 1991), coding for the cytoplasmic domain, beginning with lysine 791 and including the termination codon, was isolated from a human placental cDNA library (purchased from Clontech Laboratories, Inc.) and cloned in a Baculovirus expression vector (pFastBacHis, purchased from GIBCO BRL) The recombinant construct was transfected into insect cells (Spondoptea frugiperda9 (Sf9)) to prepare a recombinant Baculovirus. (Instructions for preparation and use of recombinant Baculovirus maybe found in standard texts, such as “Bac-To-Bac Baculovirus Expression System” (GIBCO BRL).) The cytoplasmic fragment starting from lysine 398 (FGFR1, Genbank Accession No. X52833), the cytoplasmic fragment starting from lysine 558 (PDGFRβ, Genbank Accession No. M21616) or the cytoplasmic fragment starting from lysine 974 (HGFR, Genbank Accession No. J02958) may be cloned and expressed by the same method for use in assays for other tyrosine kinases. EGFR was purchased from Sigma Co. (Product No. E-2645).
For expression of the VEGFR2 tyrosine kinase, Sf9 cells were infected with the VEGFR2 recombinant virus and collected after 48 hours. The collected cells were rinsed with ice-cooled phosphate buffered saline (PBS) and then resuspended using 20 ml of ice-cooled Lysis Buffer (50 mM Tris-HCl (pH 8.5), 5 mM 2-mercaptoethanol, 100 mM KCl, 1 mM phenylmethylsulfonyl fluoride, 1% (v/v) NP-40) per 1.5×10^8 cells. The suspension was centrifuged at 12,000 rpm for 30 minutes at 4° C. and the supernatant was obtained.
The supernatant was added to a Ni—NTA agarose column (3 ml, purchased from Qiagen) equilibrated with Buffer A {20 mM Tris-HCl (pH 8.5), 5 mM 2-mercaptoethanol, 500 mM KCl, 20 mM imidazole, 10% (v/v) glycerol}. The column was washed with 30 ml of Buffer A, and then with 6 ml of Buffer B {20 mM Tris-HCl (pH 8.5), 5 mM 2-mercaptoethanol, 1M KCl, 10% (v/v) glycerol}, and finally with 6 ml of Buffer A. After washing, it was eluted with 6 ml of Buffer C {20 mM Tris-HCl (pH8.5), 5mM2-mercaptoethanol, 100 mMKCl, 100 mM imidazole, 10% (v/v) glycerol}. The eluate was placed on a dialysis membrane (purchased from Spectrum Laboratories) and dialyzed with a dialysis buffer {20 mM Tris-HCl (pH 7.5), 10% (v/v) glycerol, 1 mM dithiothreitol, 0.1 mM Na3VO4, 0.1 mM EGTA}. After dialysis, it was supplied for SDS-electrophoresis, and the recombinant protein (His6-VEGFR2, cytoplasmic domain of VEGFR2 fused with 6 histidine residues at the N-terminus) detected at a molecular weight of approximately 100 kDa with Coumassie Brilliant Blue staining was assayed using BSA (bovine serum albumin, purchased from Sigma Co.) as the standard substance, and stored at −80° C. until use. Using the same method for the cytoplasmic domains of FGFR1, PDGFRβ and HGFR yielded respective recombinant proteins fused with 6 histidine residues at the N-termini (His6-FGFR1, His6-PDGFRβ or His6-HGFR).
The tyrosine kinase reaction was conducted as follows. […]

T1 sequence (P35968 786-1356 limits assumed): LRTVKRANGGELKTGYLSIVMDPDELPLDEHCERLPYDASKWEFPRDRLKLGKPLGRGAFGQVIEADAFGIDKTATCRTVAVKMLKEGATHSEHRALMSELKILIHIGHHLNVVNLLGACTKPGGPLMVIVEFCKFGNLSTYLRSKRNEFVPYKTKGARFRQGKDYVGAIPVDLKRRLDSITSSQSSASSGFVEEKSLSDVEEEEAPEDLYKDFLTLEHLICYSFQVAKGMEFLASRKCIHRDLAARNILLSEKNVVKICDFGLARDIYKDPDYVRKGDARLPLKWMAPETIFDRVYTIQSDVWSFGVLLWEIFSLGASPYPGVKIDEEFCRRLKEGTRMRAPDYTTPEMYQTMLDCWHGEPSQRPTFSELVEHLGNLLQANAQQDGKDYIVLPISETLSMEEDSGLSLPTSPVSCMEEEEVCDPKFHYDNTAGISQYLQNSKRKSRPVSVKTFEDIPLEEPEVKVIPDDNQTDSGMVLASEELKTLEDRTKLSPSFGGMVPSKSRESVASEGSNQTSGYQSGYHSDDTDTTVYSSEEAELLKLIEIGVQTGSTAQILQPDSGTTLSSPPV

Compound	IC50 [µM]
NC(=O)c1cc2c(Oc3ccc(NC(=O)NC4CC4)c(Cl)c3)ccnc2cc1OCCCO [Example 387, 4-(3-Chloro-4-(cyclopropylaminocarbonyl)aminophenoxy)-7-(3-hydroxypropoxy)-6-quinolinecarboxamide]	0.0041
COc1cc2nccc(Oc3ccc(NC(=O)Nc4ccc(F)cc4F)cc3)c2cc1C#N [Example 36, N-(4-(6-Cyano-7-methoxy-4-quinolyl)oxyphenyl)-N′-(2,4-difluorophenyl)urea]	0.014
O=C(Nc1ccc(Oc2ncnc3[nH]c(-c4ccccc4)cc23)cc1)NC1CC1 [Example 173, 1-Cyclopropyl-3-[4-(6-phenyl-7H-pyrrolo[2,3-d]pyrimidin-4-yloxy)phenyl]urea]	0.356
O=C1CCc2c(Oc3ccc(NC(=O)Nc4ccc(F)cc4)cc3)ccnc2N1 [Example 182, N-(4-Fluorophenyl)-N′-{4-[(7-oxo-5,6,7,8-tetrahydro[1,8]naphthyridin-4-yl)oxy]phenyl}urea]	0.071
O=C(Nc1ccc(Oc2ccnc(NC(=O)C3CC3)c2)cc1Cl)NC1CC1 [Example 208]	0.0092
COCCOc1cc2nccc(Oc3ccc(NC(=O)NCCCF)c(F)c3)c2cc1C(N)=O [Example 365]	0.0054
COCCOc1cc2nccc(Sc3ccc(NC(=O)Nc4ccc(C)cc4)s3)c2cc1C#N [Example 259, 1-{5-[6-Cyano-7-(2-methoxyethoxy)quinolin-4-ylsulfanyl]thiophen-2-yl}-3-(para-tolyl)urea]	0.016
CCNC(=O)n1ccc2cc(Oc3ncnc4[nH]c(-c5ccc(O)cc5)cc34)ccc21 [Example 178, 5-[6-(4-Hydroxyphenyl)-7H-pyrrolo[2,3-d]pyrimidin-4-yloxy]indole-1-carboxylic ethylamide]	0.012
COc1cc2nccc(Oc3ccc(NC(=O)Nc4ccccc4)cc3)c2cc1C#N [Example 37, N-[4-(6-cyano-7-methoxyquinolin-4-yloxy)phenyl]-N′-phenylurea]	0.022
COc1cc2nccc(Oc3ccc(NC(=O)NC4CC4)c(Cl)c3)c2cc1C(=O)NCC1OCCO1 [Example 413, N6-(1,3-Dioxolan-2-ylmethyl)-4-(3-chloro-4-(((cyclopropylamino)carbonyl)amino)phenoxy)-7-methoxy-6-quinolinecarboxamide]	0.0032
CN1CCC(COc2cc3nccc(Oc4ccc(NC(=O)NC5CC5)c(Cl)c4)c3cc2C(N)=O)CC1 [Example 394, 4-(3-Chloro-4-(cyclopropylaminocarbonyl)aminophenoxy)-7-((1-methyl-4-piperidyl)methoxy)-6-quinolinecarboxamide]	0.015
N#Cc1cc2c(Oc3ccc(NC(=O)Nc4ccc(F)cc4)cc3)ccnc2cc1OCCCN1CCOCC1 [Example 31]	0.017
CCN(CC)CCCOc1cc2nccc(Oc3ccc(NC(=O)Nc4ccc(F)cc4)cc3)c2cc1C#N [Example 30, N-(4-(6-Cyano-7-(3-(diethylamino)propoxy)-4-quinolyloxy)phenyl)-N′-(4-fluorophenyl)urea]	0.022
COCCOc1cc2nccc(Sc3ccc(NC(=O)Nc4cccc(C#N)c4)s3)c2cc1C#N [Example 260, 1-{5-[6-Cyano-7-(2-methoxyethoxy)quinolin-4-ylsulfanyl]-thiophen-2-yl}-3-(3-cyanophenyl)-urea]	0.011
O=C(Nc1ccc(F)cc1)Nc1ccc(Oc2ccnc(NC(=O)c3cccnc3)c2)cc1 [Example 465, N-[4-(2-Nicotinoylaminopyridin-4-yl)oxyphenyl]-N′-(4-fluorophenyl)urea]	0.013
COCCOc1cc2nccc(Oc3ccc(NC(=O)Nc4ccccc4)c(F)c3)c2cc1C#N [Example 99, N-(4-(6-Cyano-7-(2-methoxyethoxy)-4-quinolyl)oxy-2-fluorophenyl)-N′-phenylurea]	0.0086
O=C(Nc1ccc(F)cc1)Nc1ccc(Oc2ccnc3[nH]c(=O)ccc23)cc1 [Example 183, N-(4-Fluorophenyl)-N′-{4-[(7-oxo-7,8-dihydro[1,8]naphthyridin-4-yl)oxy]phenyl}urea]	0.029
COc1cc2nccc(Oc3ccc(NC(=O)NC4CC4)c(Cl)c3)c2cc1C(=O)NCC(N)=O [Example 449, N6-(2-Amino-2-oxoethyl)-4-(3-chloro-4-(((cyclopropylamino)carbonyl)amino)phenoxy)-7-methoxy-6-quinolinecarboxamide]	0.0022
COCCOc1cc2nccc(Oc3ccc(NC(=O)Nc4cccc(O)c4)cc3)c2cc1C#N [Example 15, N-(4-(6-Cyano-7-(2-methoxyethoxy)-4-quinolyl)oxyphenyl)-N′-(3-hydroxyphenyl)urea]	0.0087
COCCOc1cc2nccc(Oc3ccc(NC(=O)Nc4cccc(OC)c4)cc3)c2cc1C#N [Example 14, N-(4-(6-Cyano-7-(2-methoxyethoxy)-4-quinolyl)oxyphenyl)-N′-(3-methoxyphenyl)urea]	0.0027
O=C(CCCN1CCC(O)CC1)Nc1cc(Oc2ccc3c(ccn3C(=O)NC3CC3)c2)ccn1 [Example 187, N1-Cyclopropyl-5-[(2-{[4-(4-hydroxypiperidino)butanoyl]amino}-4-pyridyl)oxy]-1H-1-indolecarboxamide]	0.014
COc1cc2nccc(Oc3ccc(N(C)C(=O)NC4CC4)cc3)c2cc1C(N)=O [Example 350, 4-(4-(Cyclopropylaminocarbonyl)-4-methylaminophenoxy)-7-methoxy-6-quinolinecarboxamide]	0.043
COc1cc2nccc(Oc3ccc(N(C)C(=O)Nc4ccc(F)cc4)cc3)c2cc1C(=O)NC1CC1 [Example 435]	0.022
COCCOc1cc2nccc(Oc3ccc(NC(=O)NCCF)c(F)c3)c2cc1C(N)=O [Example 364, 4-(4-(3-Fluoro(2-fluoroethylamino)carbonyl)aminophenoxy)-7-(2-methoxyethoxy)-6-quinolinecarboxamide]	0.0081
NC(=O)c1cc2c(Oc3ccc(NC(=O)NC4CC4)c(F)c3)ccnc2cc1OCCN1CCOCC1 [Example 375, 4-(4-(Cyclopropylaminocarbonyl)amino-3-fluorophenoxy)-7-(2-(4-morpholino)ethoxy)-6-quinolinecarboxamide]	0.016
COc1cc2nccc(Oc3ccc(NC(=O)NCCCSC)c(F)c3)c2cc1C(N)=O [Example 353, 4-(3-Fluoro-4-((3-methylthiopropylamino)carbonyl)aminophenoxy)-7-methoxy-6-quinolinecarboxamide]	0.0022
COCCOc1cc2nccc(Oc3ccc(NC(=O)Nc4ccc(F)cc4)cc3)c2cc1C#N [Example 10, N-(4-(6-cyano-7-(2-methoxyethoxy)-4-quinolyl)oxyphenyl)-N′-(4-fluorophenyl)urea]	0.0049
CS(=O)(=O)NCCCOc1cc2nccc(Oc3ccc(NC(=O)Nc4ccc(F)cc4)c(F)c3)c2cc1C#N [Example 111, N-(3-(6-Cyano-4-(3-fluoro-4-((4-fluoroanilino)carbonyl)aminophenoxy)-7-quinolyl)oxypropyl)methanesulfonamide]	0.021
CONC(=O)c1cc2c(Oc3ccc(N(C)C(=O)Nc4ccc(F)cc4)cc3)ccnc2cc1OC [Example 437, N6-Methoxy-4-(4-(((4-fluoroanilino)carbonyl)(methyl)amino)phenoxy)-7-methoxy-6-quinolinecarboxamide]	0.0099
CCOC(=O)/C=C/c1c(Oc2ccc(NC(=O)Nc3ccc(F)cc3)cc2)ccnc1NC(=O)C1CC1 [Example 184, Ethyl(E)-3-[2-[(cyclopropylcarbonyl)amino]-4-(4-{[(4-fluoroanilino)carbonyl]amino}phenoxy)-3-pyridyl]-2-propenoate]	0.059
